# Key:
# [1] = Hygroscopicity / water re-absorption at controlled relative humidity (DVS); type: physicochemical
# From the text: The present invention is directed, inter alia, to crystalline forms of (R)—N-(4-(3-aminopiperidin-1-yl)-5-bromo-1H-pyrrolo[2,3-b]pyridin-3-yl)cyclopropanecarboxamide and salts, hydrates, and solvates thereof. The crystalline forms of the present invention can be identified by unique solid state signatures with respect to, for example, differential scanning calorimetry (DSC), X-ray powder diffraction (XRPD), and other solid state methods. Further characterization with respect to water or solvent content of the crystalline forms of the present invention can be gauged by any of the following methods for example, thermogravimetric analysis (TGA), DSC and the like. For DSC, it is known that the temperatures observed will depend upon sample purity, the rate of temperature change, as well as sample preparation technique and the particular instrument employed. Thus, the values reported herein relating to DSC thermograms can vary by about ±6° C. For desolvation events, DSC thermograms may vary by more than ±6° C. depending on instrument configuration and/or sample quantity. The values reported herein relating to DSC thermograms can also vary by about ±20 joules per gram. For XRPD, the relative intensities of the peaks can vary, depending upon the sample preparation technique, the sample mounting procedure and the particular instrument employed. Moreover, instrument variation and other factors can often affect the 2θ values. Therefore, the peak assignments of diffraction patterns can vary by about ±0.2 ° 2θ. The relative intensities of the reported peaks can also vary. For TGA, the features reported herein can vary by about ±5° C. The TGA features reported herein can also vary by about ±2% weight change due to, for example, sample variation. Further characterization with respect to hygroscopicity of the crystalline form can be gauged by, for example, dynamic vapor sorption (DVS). The DVS features reported herein can vary by about ±5% relative humidity. The DVS features reported herein can also vary by about ±5% weight change.
# (R)—N-(4-(3-aminopiperidin-1-yl)-5-bromo-1H-pyrrolo[2,3-b]pyridin-3-yl)cyclopropanecarboxamide di-ethane sulfonic acid salt: (R)—N-(4-(3-aminopiperidin-1-yl)-5-bromo-1H-pyrrolo[2,3-b]pyridin-3-yl)cyclopropanecarboxamide di-ethanesulfonic acid salt hydrate was heated to 130° C. in a DSC apparatus and then cooled to room temperature. […] The physical properties of the non-solvated di-esylate salt of (R)—N-(4-(3-aminopiperidin-1-yl)-5-bromo-1H-pyrrolo[2,3-b]pyridin-3-yl)cyclopropanecarboxamide are summarized in Table 50 below.
# [2] = Powder-in-Capsule (PiC) formulation stability; type: physicochemical; conditions: 15 mg in Size 0 hard gelatin capsules, 2-months at 5° C., ambient and accelerated conditions
# Description: (§1) Chemical characteristics of (R)—N-(4-(3-aminopiperidin-1-yl)-5-bromo-1H-pyrrolo[2,3-b]pyridin-3-yl)cyclopropanecarboxamide free base (Form A) and maleate salt crystal forms: The stability of the crystal forms described in Examples 4 and 27 was measured neat as well as in a Powder-in-Capsule (PiC) formulation. The stability as neat powder was measured over a period of 1-year for the free base and 3-months for the maleate salt, under ambient (25° C./60% RH) and accelerated (40° C./75% RH) conditions. […] It should be noted that the maleate salt used in the neat powder stability study contained high levels (˜9% wt./wt.) of residual tetrahydrofuran (THF). The PiC stability using 15 mg of (R)—N-(4-(3-aminopiperidin-1-yl)-5-bromo-1H-pyrrolo[2,3-b]pyridin-3-yl)cyclopropanecarboxamide in Size 0 hard gelatin capsules was carried out over a period of 2-months at 5° C., ambient and accelerated conditions.
# [3] = Aqueous solubility; type: physicochemical
# [4] = Abbreviated excipient compatibility study at 50° C. with 20% H2O added; type: physicochemical; conditions: 4 weeks, common diluents and disintegrants
# Description: To further investigate the chemical properties of these crystal forms, an abbreviated excipient compatibility study was run at 50° C. with 20% H2O added. The excipients used in the study consisted of common diluents and disintegrants and the study was conducted over a period of 4 weeks.
# [5] = Oral absorption of PiC formulations versus solution, preclinical pharmacokinetic study; type: in vivo; conditions: canines, 3 mg/kg, crossover
# Description: Biological characteristics of (R)—N-(4-(3-aminopiperidin-1-yl)-5-bromo-1H-pyrrolo[2,3-b]pyridin-3-yl)cyclopropanecarboxamide free base (Form A) and maleate salt crystal forms: The oral absorption of the crystal forms described in Examples 4 and 27 as PiC formulations was investigated in a preclinical pharmacokinetic study conducted in canines using a reduced Latin square crossover design at 3 mg/kg to compare the solid formulations to a solution of (R)—N-(4-(3-aminopiperidin-1-yl)-5-bromo-1H-pyrrolo[2,3-b]pyridin-3-yl)cyclopropanecarboxamide.
# [6] = Neat powder stability under ambient (25° C./60% RH) and accelerated (40° C./75% RH) conditions; type: physicochemical
# Description: as §1
smiles,measurement,setting,value
"CCS(=O)(=O)O.CCS(=O)(=O)O.N[C@@H]1CCCN(c2c(Br)cnc3[nH]cc(NC(=O)C4CC4)c23)C1 [anhydrate, (R)—N-(4-(3-aminopiperidin-1-yl)-5-bromo-1H-pyrrolo[2,3-b]pyridin-3-yl)cyclopropanecarboxamide di-ethane sulfonic acid salt]",Water re-absorption,[1]; 80% RH,re-absorbs water at 80% RH
"Cl.Cl.N[C@@H]1CCCN(c2c(Br)cnc3[nH]cc(NC(=O)C4CC4)c23)C1 [Example 29, (R)—N-(4-(3-aminopiperidin-1-yl)-5-bromo-1H-pyrrolo[2,3-b]pyridin-3-yl)cyclopropanecarboxamide di-HCl salt]",DVS form conversion,[1]; above 80% RH,dihydrate form above 80% RH.
same,DVS hygroscopicity,[1]; below 80% RH,Non-hygroscopic below 80% RH. Converts to a crystalline
"N[C@@H]1CCCN(c2c(Br)cnc3[nH]cc(NC(=O)C4CC4)c23)C1 [Form A, (R)—N-(4-(3-aminopiperidin-1-yl)-5-bromo-1H-pyrrolo[2,3-b]pyridin-3-yl)cyclopropanecarboxamide Form A]",PiC stability,[2],did not cause any significant physical or chemical degradation
same,solubility,"[3]; 0.1N HCl, simulated gastric fluid",49.9 mg/mL
same,solubility,[3]; FasSIF pH 6.8,2.4 mg/mL
same,solubility,"[3]; fessif, FedSIF pH 5",10.2 mg/mL
same,solubility,"[3]; water, H2O",0.12 mg/mL
same,Degradation with excipients,[4]; listed as free base,significant degradation with lactose and Ac-Di-Sol® (croscarmellose sodium)
same,Degradation with excipients,[4]; listed as free base Form A,more stable with excipients than the maleate salt
same,Oral absorption,[5],no significant differences in absorption
same,Stability as neat powder,"[6]; 1-year, ambient (25° C./60% RH) and accelerated (40° C./75% RH)",very good stability with no chiral or achiral degradation observed under any condition
"Br.Br.N[C@@H]1CCCN(c2c(Br)cnc3[nH]cc(NC(=O)C4CC4)c23)C1 [Example 30, (R)—N-(4-(3-aminopiperidin-1-yl)-5-bromo-1H-pyrrolo[2,3-b]pyridin-3-yl)cyclopropanecarboxamide di-HBr salt]",DVS hygroscopicity,[1]; below 80% RH,Non-hygroscopic below 80% RH. Upon desorption the solids
"N[C@@H]1CCCN(c2c(Br)cnc3[nH]cc(NC(=O)C4CC4)c23)C1.O=C(O)/C=C\C(=O)O [maleate salt, Maleic acid salt of (R)—N-(4-(3-aminopiperidin-1-yl)-5-bromo-1H-pyrrolo[2,3-b]pyridin-3-yl)cyclopropanecarboxamide]",PiC stability,[2],stable
same,DVS hygroscopicity,[1]; at 80% RH,Non-hygroscopic
same,DVS weight gain,[1]; at 80% RH,0.3 % wt./wt.
same,Aqueous Solubility,[3]; at pH ≦7,>10 at pH ≦7 mg/mL
same,Degradation with excipients,[4],significant degradation with all excipients investigated
same,Oral absorption,[5],no significant differences in absorption
same,Stability as neat powder,"[6]; 3-months, ambient and accelerated conditions, material contained ~9% wt./wt. residual THF",very slight degradation under accelerated conditions

# Source: US20160251350A1, “CRYSTALLINE FORMS OF A PYRROLOPYRIDINE COMPOUND” (Genentech, Inc., priority 2015, published 2016)
